Test results published in patent publication US10906915B2, “Substituted pyrazoloazepin-4-ones and their use as phosphodiesterase inhibitors” (LEO Pharma A/S, priority 2016, dated 2021).

target: human PDE4D catalytic domain (UniProt no. Q08499) (Homo sapiens (Human), UniProt Q08499); experiment: PDE4 assay (TR-FRET, FAM-cAMP cleavage); format: biochemical; conditions: human PDE4D catalytic domain; molar concentration giving 50% inhibition of substrate cleavage; read-out: PDE4 IC50 range
Method in brief: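 PDE4D catalytic domain ([…]) was incubated with unlabelled cAMP plus FAM-cAMP and titrated compound, stopped with binding buffer of metal-ion nanoparticles and Tb donor. AMP generation read by TR-FRET; IC50 as 50% inhibition of cleavage versus controls, reported as nM ranges.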

Chain of human PDE4D catalytic domain (Q08499 380-740 limits assumed): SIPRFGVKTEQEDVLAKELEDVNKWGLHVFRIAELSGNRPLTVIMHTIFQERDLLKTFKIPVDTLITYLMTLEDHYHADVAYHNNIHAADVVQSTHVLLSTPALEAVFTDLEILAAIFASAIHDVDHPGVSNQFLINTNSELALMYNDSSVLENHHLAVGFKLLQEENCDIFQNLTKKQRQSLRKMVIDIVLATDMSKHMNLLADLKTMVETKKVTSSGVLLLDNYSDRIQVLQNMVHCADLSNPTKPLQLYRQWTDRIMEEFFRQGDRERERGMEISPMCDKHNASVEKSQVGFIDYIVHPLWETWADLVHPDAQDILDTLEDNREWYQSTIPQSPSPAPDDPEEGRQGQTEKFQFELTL

Question: Which IC50 does the source give for `CCc1nn(CCCOC(=O)c2cc(OC)ccc2Cl)c2c1C(=O)NCC1(CCOCC1)C2` [Example 90, 3-(3-ethyl-4-oxo-spiro[6,8-dihydro-5H-pyrazolo[4,3-c]azepine-7,4′-tetrahydropyran]-1-yl)propyl 2-chloro-5-methoxy-benzoate] here?
Answer: < 100 nM

Question: With `CCOc1cccc(C(=O)OCCCn2nc(CC)c3c2CC2(CCOCC2)CNC3=O)c1` [Example 61, 3-(3-ethyl-4-oxo-spiro[6,8-dihydro-5H-pyrazolo[4,3-c]azepine-7,4′-tetrahydropyran]-1-yl)propyl 3-ethoxybenzoate] as the molecule, how does the IC50 read?
Answer: < 100 nM

Question: `CCc1nn(C[C@@H](C)COC(=O)c2ccc(S(=O)(=O)N3CCOCC3)cc2)c2c1C(=O)NCC1(CCOCC1)C2` [Example 249, [(2R)-3-(3-ethyl-4-oxo-spiro[6,8-dihydro-5H-pyrazolo[4,3-c]azepine-7,4′-tetrahydropyran]-1-yl)-2-methyl-propyl] 4-morpholinosulfonylbenzoate] was tested. Which IC50 did it give?
Answer: < 100 nM

Question: With `CCc1nn(C[C@@H](C)COC(=O)c2cc(Cl)ccc2C(F)(F)F)c2c1C(=O)NCC1(CCOCC1)C2` [Example 239, [(2R)-3-(3-ethyl-4-oxo-spiro[6,8-dihydro-5H-pyrazolo[4,3-c]azepine-7,4′-tetrahydropyran]-1-yl)-2-methyl-propyl] 5-chloro-2-(trifluoromethyl)benzoate] as the molecule, how does the IC50 read?
Answer: < 100 nM

Question: For `CCc1nn(C[C@@H](C)COC(=O)c2cccc(F)c2)c2c1C(=O)NCC1(CCOCC1)C2` [Example 165, [(2R)-3-(3-ethyl-4-oxo-spiro[6,8-dihydro-5H-pyrazolo[4,3-c]azepine-7,4′-tetrahydropyran]-1-yl)-2-methyl-propyl] 3-fluorobenzoate], which IC50 is on record?
Answer: < 100 nM

Question: How did the IC50 turn out when `CCNC(=O)c1ccc(C(=O)OCCCn2nc(CC)c3c2CC2(CCOCC2)CNC3=O)cc1` [Example 142, 3-(3-ethyl-4-oxo-spiro[6,8-dihydro-5H-pyrazolo[4,3-c]azepine-7,4′-tetrahydropyran]-1-yl)propyl 4-(ethylcarbamoyl)benzoate] was run?
Answer: < 100 nM

Question: For `CCc1nn(CCCOC(=O)c2ccc(C)cc2Cl)c2c1C(=O)NCC1(CCOCC1)C2` [Example 73, 3-(3-ethyl-4-oxo-spiro[6,8-dihydro-5H-pyrazolo[4,3-c]azepine-7,4′-tetrahydropyran]-1-yl)propyl 2-chloro-4-methyl-benzoate], which IC50 is on record?
Answer: < 100 nM

Question: For `CCc1nn(CCCOC(=O)c2ccc(C(F)(F)F)c(C(F)(F)F)c2)c2c1C(=O)NCC1(CCOCC1)C2` [Example 136, 3-(3-ethyl-4-oxo-spiro[6,8-dihydro-5H-pyrazolo[4,3-c]azepine-7,4′-tetrahydropyran]-1-yl)propyl 3,4-bis(trifluoromethyl) benzoate], which IC50 is on record?
Answer: < 100 nM

Question: `CCc1nn(CCCOC(=O)c2cc(Cl)ccc2F)c2c1C(=O)NCC1(CCOCC1)C2` [Example 83, 3-(3-ethyl-4-oxo-spiro[6,8-dihydro-5H-pyrazolo[4,3-c]azepine-7,4′-tetrahydropyran]-1-yl)propyl 5-chloro-2-fluoro-benzoate] was tested. Which IC50 did it give?
Answer: < 100 nM

Question: How did the IC50 turn out when `CCc1nn(C[C@@H](C)COC(=O)c2cccc(OC)c2)c2c1C(=O)NCC1(CCOCC1)C2` [Example 171, [(2R)-3-(3-ethyl-4-oxo-spiro[6,8-dihydro-5H-pyrazolo[4,3-c]azepine-7,4′-tetrahydropyran]-1-yl)-2-methyl-propyl] 3-methoxybenzoate] was run?
Answer: < 100 nM

Question: Which IC50 does the source give for `CCc1nn(CCCOC(=O)c2ccc(Cl)c(C(F)(F)F)c2)c2c1C(=O)NCC1(CCOCC1)C2` [Example 122, 3-(3-ethyl-4-oxo-spiro[6,8-dihydro-5H-pyrazolo[4,3-c]azepine-7,4′-tetrahydropyran]-1-yl)propyl 4-chloro-3-(trifluoromethyl)benzoate] here?
Answer: < 100 nM

Question: `CCc1nn(CCCOC(=O)c2cccc(F)c2)c2c1C(=O)NCC1(CCOCC1)C2` [Example 18, 3-(3-ethyl-4-oxo-spiro[6,8-dihydro-5H-pyrazolo[4,3-c]azepine-7,4′-tetrahydropyran]-1-yl)propyl 3-fluorobenzoate] was tested. Which IC50 did it give?
Answer: < 100 nM

Question: `CCc1nn(C[C@@H](C)COC(=O)c2ccc(OC)c(C(F)(F)F)c2)c2c1C(=O)NCC1(CCOCC1)C2` [Example 230, [(2R)-3-(3-ethyl-4-oxo-spiro[6,8-dihydro-5H-pyrazolo[4,3-c]azepine-7,4′-tetrahydropyran]-1-yl)-2-methyl-propyl] 4-methoxy-3-(trifluoromethyl)benzoate] was tested. Which IC50 did it give?
Answer: < 100 nM

Question: Which IC50 does the source give for `CCc1nn(CCCOC(=O)c2ccc(C(F)(F)F)c(Cl)c2)c2c1C(=O)NCC1(CCOCC1)C2` [Example 125, 3-(3-ethyl-4-oxo-spiro[6,8-dihydro-5H-pyrazolo[4,3-c]azepine-7,4′-tetrahydropyran]-1-yl)propyl 3-chloro-4-(trifluoromethyl)benzoate] here?
Answer: < 100 nM

Question: `CCc1nn(CCCOC(=O)c2ccc(F)c(F)c2)c2c1C(=O)NCC1(CCOCC1)C2` [Example 44, 3-(3-ethyl-4-oxo-spiro[6,8-dihydro-5H-pyrazolo[4,3-c]azepine-7,4′-tetrahydropyran]-1-yl)propyl 3,4-difluorobenzoate] was tested. Which IC50 did it give?
Answer: < 100 nM

Question: How did the IC50 turn out when `CCc1nn(CCCOC(=O)c2cccc(S(C)(=O)=O)c2)c2c1C(=O)NCC1(CCOCC1)C2` [Example 99, 3-(3-ethyl-4-oxo-spiro[6,8-dihydro-5H-pyrazolo[4,3-c]azepine-7,4′-tetrahydropyran]-1-yl)propyl 3-methylsulfonylbenzoate] was run?
Answer: < 100 nM

same assay, conditions: read-out: PDE4 IC50 range

Question: `CCc1nn(CC(C)(C)COC(=O)c2ccc(S(N)(=O)=O)cc2)c2c1C(=O)NCC1(CCOCC1)C2` [Example 309, [3-(3-ethyl-4-oxo-spiro[6,8-dihydro-5H-pyrazolo[4,3-c]azepine-7,4′-tetrahydropyran]-1-yl)-2,2-dimethyl-propyl] 4-sulfamoylbenzoate] was tested. Which IC50 did it give?
Answer: < 100 nM

Question: `CCNC(=O)c1cccc(C(=O)OCC(C)(C)Cn2nc(CC)c3c2CC2(CCOCC2)CNC3=O)c1` [Example 341, [3-(3-ethyl-4-oxo-spiro[6,8-dihydro-5H-pyrazolo[4,3-c]azepine-7,4′-tetrahydropyran]-1-yl)-2,2-dimethyl-propyl] 3-(ethylcarbamoyl)-benzoate] was tested. Which IC50 did it give?
Answer: < 100 nM

Question: Which IC50 does the source give for `CCc1nn(C[C@H](C)COC(=O)c2ccccc2)c2c1C(=O)NCC1(CCOCC1)C2` [Example 274, [(2S)-3-(3-ethyl-4-oxo-spiro[6,8-dihydro-5H-pyrazolo[4,3-c]azepine-7,4′-tetrahydropyran]-1-yl)-2-methyl-propyl] benzoate] here?
Answer: < 100 nM

Question: `CCc1nn(CC(C)(C)COC(=O)c2cccc(C(F)(F)F)c2)c2c1C(=O)NCC1(CCOCC1)C2` [Example 302, [3-(3-ethyl-4-oxo-spiro[6,8-dihydro-5H-pyrazolo[4,3-c]azepine-7,4′-tetrahydropyran]-1-yl)-2,2-dimethyl-propyl] 3-(trifluoromethyl)benzoate] was tested. Which IC50 did it give?
Answer: < 100 nM

Question: With `CCc1nn(CCCCOC(=O)c2ccccc2)c2c1C(=O)NCC1(CCOCC1)C2` [Example 363, 4-(3-ethyl-4-oxo-spiro[6,8-dihydro-5H-pyrazolo[4,3-c]azepine-7,4′-tetrahydropyran]-1-yl)butyl benzoate] as the molecule, how does the IC50 read?
Answer: < 100 nM

Question: With `CCc1nn(CCCCOC(=O)c2ccc(S(=O)(=O)N3CCOCC3)cc2)c2c1C(=O)NCC1(CCOCC1)C2` [Example 378, 4-(3-ethyl-4-oxo-spiro[6,8-dihydro-5H-pyrazolo[4,3-c]azepine-7,4′-telrahydropyran]-1-yl)butyl 4-morpholinosulfonylbenzoate] as the molecule, how does the IC50 read?
Answer: 100 to 500 nM
